Measured values reported in the NIST ThermoML archive (doi:10.1021/je400659p).
Numbers after ± are expanded uncertainties.

Test: xn = mol fraction of the nth substance listed
Settings: 101 kPa, Liquid, Vibrating tube method

CCn1cc[n+](C)c1.F[B-](F)(F)F [1-ethyl-3-methylimidazolium tetrafluoroborate] + OCCO
mass density [kg/m3]
Settings | x1 = 0.1249 | x1 = 0.2084 | x1 = 0.3046 | x1 = 0.4124 | x1 = 0.4763 | x1 = 0.5565 | x1 = 0.717 | x1 = 0.7826 | x1 = 0.901 | x1 = 1
293.15 K | 1161.63 ± 0.26 | 1184.1 ± 0.3 | 1205.75 ± 0.38 | 1224.93 ± 0.5 | 1234.72 ± 0.57 | 1245.69 ± 0.68 | 1264.34 ± 0.93 | 1271.14 ± 1 | 1282.2 ± 1.3 | 1290.63 ± 1.5
298.15 K | 1157.85 ± 0.26 | 1180.23 ± 0.3 | 1201.79 ± 0.38 | 1220.94 ± 0.49 | 1230.74 ± 0.57 | 1241.72 ± 0.67 | 1260.43 ± 0.92 | 1267.25 ± 1 | 1278.35 ± 1.3 | 1286.82 ± 1.5
303.15 K | 1154.08 ± 0.26 | 1176.36 ± 0.3 | 1197.84 ± 0.38 | 1216.96 ± 0.49 | 1226.77 ± 0.56 | 1237.77 ± 0.67 | 1256.53 ± 0.92 | 1263.37 ± 1 | 1274.51 ± 1.3 | 1283.02 ± 1.5
313.15 K | 1146.54 ± 0.26 | 1168.63 ± 0.29 | 1189.98 ± 0.37 | 1209.07 ± 0.48 | 1218.9 ± 0.55 | 1229.92 ± 0.66 | 1248.81 ± 0.9 | 1255.69 ± 1 | 1266.9 ± 1.2 | 1275.45 ± 1.4
323.15 K | 1138.98 ± 0.25 | 1160.91 ± 0.29 | 1182.17 ± 0.36 | 1201.24 ± 0.47 | 1211.09 ± 0.55 | 1222.17 ± 0.65 | 1241.18 ± 0.89 | 1248.09 ± 1 | 1259.36 ± 1.2 | 1267.97 ± 1.4
333.15 K | 1131.39 ± 0.25 | 1153.19 ± 0.28 | 1174.39 ± 0.36 | 1193.47 ± 0.46 | 1203.36 ± 0.54 | 1214.49 ± 0.64 | 1233.6 ± 0.88 | 1240.56 ± 0.99 | 1251.89 ± 1.2 | 1260.55 ± 1.4
